For 13 compounds, chromatographic logD and IC50 results are on record in paper PMC7801115, “Preclinical in vitro screening of newly synthesised amidino substituted benzimidazoles and benzothiazoles” (Journal of Enzyme Inhibition and Medicinal Chemistry, 2021).

Where only a bound is given, the exact number is not on record here.

Data set [1] in a line: Chromatographic lipophilicity study (Chrom logD7.4). Type of data set: physicochemical. The conditions noted are these: gradient reverse-phase HPLC (Phenomenex Luna C18 column); pH 7.4, gradient reverse-phase HPLC, from CHI7.4. Here is the method:
In order to determine the lipophilicity range, Chromatographic Hydrophobicity Index was measured by gradient reverse-phase HPLC at physiological pH. Sample working solutions were prepared from 10 mM DMSO stock solutions by dilution with acetonitrile to a final concentration of 1.25 mM and analysed on Agilent 1100 Series liquid chromatography system with HPLC diode-array detector (DAD) coupled with Micromass Quattro micro API mass spectrometer. Samples were injected onto an HPLC column (Phenomenex Luna C18, 50 × 3 mm, 5 µm) and eluted with a gradient at room temperature (sample temperature 15 °C). The mobile phase was composed of 50 mM Ammonium acetate, pH = 7.4 and acetonitrille. A total run time was 5 min, with the flow rate of 1 ml/min (under gradient conditions). The HPLC system was initially calibrated using the calibration set of 10 compounds with literature CHI values. The experimentally determined gradient retention times were plotted against the CHI7.4 values published in the literature resulting in the equation obtained from linear regression analysis. This equation was further used for the calculation of CHI7.4 for test compounds from determined retention times of the main chromatographic peak from UV chromatogram for each compound. The obtained CHI7.4 values were further converted to Chrom log D7.4 as follows: CHI7.4 × 0.0857 − 2.

The subject of data set [2] is NCI-H358. In words: Cell viability assay, 3D hanging drop cell culture (CellTiter GLO 3D). The following applies: Homo sapiens; NCI-H358, 3D hanging drop cell culture, 72 h; ±SD, N = 2; read-out: IC50 antitumor activity NCI-H358 3D. Type of data set: cell-based. Here is the method:
(§1) Compounds are diluted 1:3. 500 nL (for 2 D cell culture) or 400 nL (for 3 D cell culture) of compound were transferred from mother plate to test plate by using Mosquito (TTP labtech). DMSO percentage in test concentrations was 0.5 − 1.0%. Starting concentration of the test compounds and standard compound doxorubicin was 50 µM (2 D cell culture) or 100 µM (3 D cell culture).
(§2) Cells were grown in 96 well Perfecta 3 D hanging drop plates 5000 cell/well for 4 days until spheres were formed (and checked under the microscope). After sphere formation cells were treated with compounds followed by 72 h incubation. Cell viability assay was performed according to the manufacturer’s instruction, using CellTiter GLO 3 D for 3 D cell culture (Promega); cell incubation was 5 min on the shaker followed by 25 min incubation in the dark. Plates were read using PE EnVision luminescence.
(§3) Calculation of IC50 data, curves and QC analysis is made by using Excel tools and GraphPadPrism software (La Jolla, CA), v. […] QC criteria parameters (Z', S:B, R2, HillSlope) were checked for every IC50 curve.

The next data set relates to HCC827. The data set is described as above. The following applies: Homo sapiens; HCC827, 3D hanging drop cell culture, 72 h; ±SD, N = 2; read-out: IC50 antitumor activity HCC827 3D. Type of data set: cell-based. Here is the method: as §1, §2, §3
The subject of data set [3] is A549. Described as above. Type of data set: cell-based. The conditions noted are these: Homo sapiens; A549, 3D hanging drop cell culture, 72 h; ±SD, N = 2; read-out: IC50 antitumor activity A549 3D. Here is the method:
as §1, §2, §3

For data set [4], the system named is NCI-H358. In words: BrdU proliferation assay, 3D cell culture. Type of data set: cell-based. The conditions noted are these: Homo sapiens, NCI-H358, 3D cell culture, ±SD, N = 2. Here is the method: as §2, with “luminescence. The results for each of tested compounds are reported as growth percentages from two independent concentrations curves compared with the untreated control cells after drug exposure.” for “luminescence.”
(§4) Proliferation assay was performed using Cell Proliferation ELISA, BrdU (Sigma, St. Louis, MO, USA). Briefly, 48 h hours after compound addition, 10 µM of BrdU was added to each well and incubated for following 24 h. After incubation, single cell suspension was made for 3 D cell culture in the new 96 well plate. Plates were centrifuged and supernatants were removed from each plate (for 2 D and 3 D cell culture) followed by 60 min incubation at 60° C. The rest of the proliferation assay was performed according to the manufacturer instructions.
(§5) Calculation of IC50 data, curves and QC analysis is made by using Excel tools and GraphPadPrism software (La Jolla, CA), v. 5.03. In brief, individual concentration–effect curves are generated by plotting the logarithm of the tested concentration of tested compounds (X) versus corresponding percent inhibition values (Y) using least squares (ordinary) fit. […] QC criteria parameters (Z', S:B, R2, HillSlope) were checked for every IC50 curve.

Data set [5] relates to A549. In words: BrdU proliferation assay, 3D cell culture. Type of data set: cell-based. The conditions noted are these: Homo sapiens, A549, 3D cell culture, ±SD, N = 2. Here is the method: as §2, with “luminescence. The results for each of tested compounds are reported as growth percentages from two independent concentrations curves compared with the untreated control cells after drug exposure.” for “luminescence.”
as §4, §5

In data set [1], `c1ccc2sc(-c3nc4cc(C5=NCCCN5)ccc4[nH]3)cc2c1` [Compound 6d, 2-(Benzo[b]thiophen-2-yl)-5(6)–(3,4,5,6-tetrahydropyrimidin-1-ium-2-yl)benzimidazole chloride] gave a chromatographic logD of 2.43. For the same compound, the IC50 with NCI-H358 [2], with HCC827, in the data set on A549 [3], in the data set with NCI-H358 [4] and in the data set on A549 [5] was greater than 100 µM in each case.
In data set [1], `c1ccc2c(c1)cc(-c1nc3cc(C4=NCCCN4)ccc3[nH]1)c1ccccc12` [Compound 6g, 2-(Phenanthrene-9-yl)-5(6)–(3,4,5,6-tetrahydropyrimidin-1-ium-2-yl)benzimidazole chloride] had a chromatographic logD of 3.27. Moreover, the concentration for half-maximal inhibition (IC50) with NCI-H358 [2], with HCC827, in the data set with A549 [3], in the data set on NCI-H358 [4] and in the data set with A549 [5] was greater than 100 µM throughout.
For `Cl.c1ccc2cc(-c3nc4ccc(C5=NCCCN5)cc4s3)ccc2c1` [Compound 5h, 2-(Naphthalene-2-yl)-6–(3,4,5,6-tetrahydropyrimidin-1-ium-2-yl)benzothiazole chloride], the chromatographic logD in data set [1] stood at 3.31. Moreover, the IC50 turned out to be 31 ± 0.33 µM with NCI-H358 [2]; 12 ± 0.26 µM in the data set on HCC827; 14 ± 0.38 µM in the data set on A549 [3]; 1 ± 0.81 µM with NCI-H358 [4]; 14 ± 0.06 µM in the data set on A549 [5].
In data set [1], `Cl.c1ccc2sc(-c3nc4ccc(C5=NCCCN5)cc4s3)nc2c1` [Compound 5g, 2-(Benzothiazole-2-yl)-6–(3,4,5,6-tetrahydropyrimidin-1-ium-2-yl)benzothiazole chloride] had a chromatographic logD of 2.71. Also, the half-inhibitory concentration (IC50) in the data set with NCI-H358 [2] came out at 31 ± 0.05 µM; with HCC827, 17 ± 0.93 µM; with A549 [3], 15 ± 1.35 µM; in the data set with NCI-H358 [4], 7 ± 2.33 µM; with A549 [5], 14 ± 3.07 µM.
In data set [1], `Cl.c1ccc2sc(-c3nc4ccc(C5=NCCCN5)cc4s3)cc2c1` [Compound 5e, 2-(Benzo[b]thiophen-2-yl)-6–(3,4,5,6-tetrahydropyrimidin-1-ium-2-yl)benzothiazole chloride] yielded a chromatographic logD of 3.19. In addition, the IC50 in the data set on NCI-H358 [2] is 34 ± 0.16 µM; in the data set with HCC827 it was 22 ± 9.45 µM; in the data set with A549 [3], 23 ± 6.24 µM; in the data set with NCI-H358 [4] it was 5 ± 0.81 µM; in the data set with A549 [5], 23 ± 6.24 µM.
The compound `Cl.N#Cc1ccc(-c2nc3ccc(C4=NCCCN4)cc3s2)cc1` [Compound 5b, 2–(4-Cyanophenyl)-6–(3,4,5,6-tetrahydropyrimidin-1-ium-2-yl)benzothiazole chloride] gave a chromatographic logD in data set [1] of 2.18. Moreover, the IC50 in the data set with NCI-H358 [2] was greater than 100 µM; in the data set on HCC827 it was greater than 100 µM; in the data set on A549 [3], 60 ± 1.44 µM; with NCI-H358 [4], greater than 100 µM; in the data set on A549 [5] it was 87 ± 0.11 µM.
With `Cl.c1ccc2nc(-c3nc4ccc(C5=NCCCN5)cc4s3)ccc2c1` [Compound 5d, 2-(Quinoline-2-yl)-6–(3,4,5,6-tetrahydropyrimidin-1-ium-2-yl)benzothiazole chloride], in data set [1], the chromatographic logD was found to be 2.87. The half-maximal inhibitory concentration (IC50) in the data set on NCI-H358 [2] was 40 ± 4.89 µM; in the data set on HCC827, greater than 100 µM; in the data set with A549 [3], 16 ± 1.3 µM; in the data set with NCI-H358 [4], 13 ± 1.65 µM; with A549 [5], 16 ± 1.3 µM.
Regarding `c1ccc(-c2nc3cc(C4=NCCCN4)ccc3[nH]2)cc1` [Compound 6a, 2-Phenyl-5(6)–(3,4,5,6-tetrahydropyrimidin-1-ium-2-yl)benzimidazole chloride], in data set [1], the chromatographic logD came out at 0.92. The half-maximal inhibitory concentration (IC50) in the data set with NCI-H358 [2] was determined as 17 ± 1.94 µM; in the data set with HCC827 it was 9 ± 3.05 µM; in the data set on A549 [3], 13 ± 1.46 µM; in the data set with NCI-H358 [4], 3 ± 1.41 µM; in the data set on A549 [5], 12 ± 0.28 µM.
The compound `c1ccc2cc(-c3nc4cc(C5=NCCCN5)ccc4[nH]3)ccc2c1` [Compound 6f, 2-(Naphthalene-2-yl)-5(6)–(3,4,5,6-tetrahydropyrimidin-1-ium-2-yl)benzimidazole chloride] displayed a chromatographic logD in data set [1] of 2.18. The IC50 in the data set with NCI-H358 [2], with HCC827, with A549 [3], with NCI-H358 [4] and in the data set on A549 [5] was greater than 100 µM each time.
`c1ccc2c(-c3nc4ccc(C5=NCCCN5)cc4[nH]3)c[nH]c2c1` [Compound 6e, 2-(1H-Indol-3-yl)-5(6)–(3,4,5,6-tetrahydropyrimidin-1-ium-2-yl)benzimidazole chloride] displayed a chromatographic logD in data set [1] of 1.38. The IC50 in the data set on NCI-H358 [2], in the data set with HCC827, in the data set with A549 [3], in the data set on NCI-H358 [4] and in the data set with A549 [5] was greater than 100 µM throughout.
The compound `Cl.FC(F)(F)c1ccc(-c2nc3ccc(C4=NCCCN4)cc3s2)cc1` [Compound 5c, 2–(4-Trifluoromethylphenyl)-6–(3,4,5,6-tetrahydropyrimidin-1-ium-2-yl)benzothiazole chloride] had a chromatographic logD in data set [1] of 3.31. The half-maximal inhibitory concentration (IC50) is 34 ± 0.7 µM with NCI-H358 [2]; 12 ± 0.16 µM in the data set with HCC827; 16 ± 0.65 µM with A549 [3]; 4.31 µM in the data set on NCI-H358 [4]; 13 ± 0.78 µM in the data set with A549 [5].
Consider `FC(F)(F)c1ccc(-c2nc3cc(C4=NCCCN4)ccc3[nH]2)cc1` [Compound 6c, 2–(4-Trifluoromethylphenyl)-5(6)–(3,4,5,6-tetrahydropyrimidin-1-ium-2-yl)benzimidazole chloride], for which, in data set [1], the chromatographic logD was found to be 2.6. Also, the IC50 in the data set on NCI-H358 [2], with HCC827, in the data set with A549 [3], with NCI-H358 [4] and in the data set on A549 [5] was greater than 100 µM throughout.
`N#Cc1ccc(-c2nc3cc(C4=NCCCN4)ccc3[nH]2)cc1` [Compound 6b, 2–(4-Cyanophenyl)-5(6)–(3,4,5,6-tetrahydropyrimidin-1-ium-2-yl)benzimidazole chloride]: the chromatographic logD in data set [1] is 1.17. Besides, the IC50 with NCI-H358 [2], in the data set on HCC827, in the data set with A549 [3], in the data set on NCI-H358 [4] and in the data set on A549 [5] was greater than 100 µM each time.
